Reference: patent publication US12397016B2, “Sulfated oligosaccharides having anti-inflammatory activity” (The University of North Carolina at Chapel Hill, priority 2017, dated 2025)
“Also recorded” adds a separate entry of the source.

Tested on: APAP-induced liver injury in mice
Assay: Delayed treatment 6 h post-APAP, comparison with NAC
Type: in vivo, mouse
Conditions: read at 24 h, FIG. 5D
Experimental: To compare the 18-mer's effectiveness to N-acetyl cysteine (NAC), 300 mg kg^−1 NAC at pH 7.5 in sterile saline was injected intraperitoneal 30 min post-APAP. In a separate experiment, 300 mg kg^−1 NAC or 0.34 mg/kg 18-mer were administered 6 h post-APAP, then at 18 h post-APAP, 0.17 mg kg^−1 18-mer was administered to the 18-mer treated group. At 24 h post-APAP, mice were euthanized and blood and liver tissue were collected.
Plasma ALT was measured using the ALT Infinity reagent (Thermo Fisher Scientific) following the manufacturer's instructions. Plasma TNF-α was measured using Mouse TNF-α DuoSet Kit (R&D Systems, Minneapolis, Minnesota, United States of America) according to the manufacturer's instructions. Plasma HMGB1 levels were determined using HMGB1 ELISA Kit (Tecan US of Tecan Trading AG, Mannedorf, Switzerland) according to the manufacturer's instructions. Plasma syndecan-1 levels were determined using Mouse Syndecan-1 ELISA (CellSciences) according to manufacturer's instructions. Hepatic GSH levels were determined using Glutathione Assay Kit (Cayman Chemicals, Ann Arbor, Michigan, United States of America) according to the manufacturer's instructions.

CC(=O)N[C@@H](CS)C(=O)O [NAC, N-acetyl-cysteine]
protective effect (ALT) when administered six hours post-APAP: loses its protective effect; also recorded: loses effectiveness
